From patent US20070054926A1 (priority 2003, published 2007)
Like-named read-outs stand apart in the source and are kept apart here.

Tested on: Phytophthora infestans
Type: in vivo
Settings: individual active compound, protective, assessed 6 days after infection

SMILES | Efficacy in % of the untreated control (4 ppm in the spray liquor) [%] | Efficacy in % of the untreated control (16 ppm in the spray liquor) [%] | Efficacy in % of the untreated control (63 ppm in the spray liquor) [%]
CC1CCN(c2c(-c3c(F)cccc3Cl)c(Cl)nc3ncnn23)CC1 [A] | 0 | 0 | 0
Fc1ccc([C@]2(Cn3cncn3)O[C@H]2c2ccccc2Cl)cc1 (racemic) [compound II, (2RS,3SR)-1-[3-(2-chlorophenyl)-2,3-epoxy-2-(4-fluorophenyl)-propyl]-1H-1,2,4-triazole] |  | 10 | 
CC1CCN(c2c(-c3c(F)cc(F)cc3F)c(Cl)nc3ncnn23)CC1 [compound I, 5-chloro-7-(4-methylpiperidin-1-yl)-6-(2,4,6-trifluorophenyl)-[1,2,4]triazolo[1,5-a]pyrimidine] | 0 | 10 | 10
C[C@H](Nc1c(-c2c(F)cc(F)cc2F)c(Cl)nc2ncnn12)C(F)(F)F [B] | 0 | 0 | 10
